Laboratory results from patent US11613522B2, “Herbicidally active 3-phenylisoxazoline-5-carboxamides of tetrahydro- and dihydrofurancarboxamides” (BAYER AKTIENGESELLSCHAFT, priority 2017, dated 2023).

Legend:
Assay type in all cases: in vivo
Stellaria media [1] = assay: Pre-emergence herbicidal activity against STEME; settings: dosage 80 g/ha, scored visually after about 3 weeks vs untreated controls
How it was run: (§1)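 Emulsion concentrates or wettable powders, diluted in water containing 0.5% additive, go onto covering soil at a spray volume of 600 l/ha. Percent herbicidal effect is judged by eye about 3 weeks later in the greenhouse, 0% meaning like control plants and 100% meaning dead.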

Alopecurus myosuroides [2] = assay: Pre-emergence herbicidal activity against ALOMY; settings: dosage 80 g/ha, scored visually after about 3 weeks vs untreated controls
How it was run: as §1

Amaranthus retroflexus [3] = assay: Post-emergence herbicidal activity against AMARE; settings: dosage 320 g/ha, rated visually after about 3 weeks
How it was run: (§2)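 Weeds grown in sandy loam in greenhouse, treated at one-leaf stage (2–3 weeks after sowing) by spraying WP or EC formulations as aqueous suspension/emulsion with 0.5% additive at 600 l/ha. Activity rated visually about 3 weeks later versus untreated controls (100% = plants dead, 0% = like control).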

Polygonum convolvulus [4] = assay: Post-emergence herbicidal activity against POLCO; settings: dosage 320 g/ha, rated visually after about 3 weeks
How it was run: as §2

Stellaria media [5] = assay: Post-emergence herbicidal activity against STEME; settings: dosage 320 g/ha, rated visually after about 3 weeks
How it was run: as §2

Avena fatua [6] = assay: Post-emergence herbicidal activity against AVEFA; settings: dosage 320 g/ha, rated visually after about 3 weeks
How it was run: as §2

Alopecurus myosuroides [7] = assay: Post-emergence herbicidal activity against ALOMY; settings: dosage 320 g/ha, rated visually after about 3 weeks
How it was run: as §2

Pharbitis purpurea [8] = assay: Post-emergence herbicidal activity against PHBPU; settings: dosage 320 g/ha, rated visually after about 3 weeks
How it was run: as §2

Echinochloa crus-galli [9] = assay: Pre-emergence herbicidal activity against ECHCG; settings: dosage 80 g/ha, scored visually after about 3 weeks vs untreated controls
Description: (§3) 1. Pre-emergence herbicidal action against harmful plants and crop plant compatibility Seeds of monocotyledonous and dicotyledonous weed plants and crop plants are placed in plastic or wood fiber pots and covered with soil. The compounds of the invention, formulated in the form of wettable powders (WP) or as emulsion concentrates (EC), are then applied onto the surface of the covering soil as aqueous suspension or emulsion with addition of 0.5% additive at a water application rate of 600 l/ha (converted). After the treatment, the pots are placed in a greenhouse and kept under good growth conditions for the trial plants. After about 3 weeks, the effect of the preparations is scored visually in comparison with untreated controls as percentages. For example, 100% activity=the plants have died, 0% activity=like control plants. [table]

Veronica persica [10] = assay: Post-emergence herbicidal activity against VERPE; settings: dosage 320 g/ha, rated visually after about 3 weeks
How it was run: as §2

Pharbitis purpurea [11] = assay: Pre-emergence herbicidal activity against PHBPU; settings: dosage 80 g/ha, scored visually after about 3 weeks vs untreated controls
Description: as §3

Lolium rigidum [12] = assay: Post-emergence herbicidal activity against LOLRI; settings: dosage 320 g/ha, rated visually after about 3 weeks
How it was run: as §2

Polygonum convolvulus [13] = assay: Pre-emergence herbicidal activity against POLCO; settings: dosage 80 g/ha, scored visually after about 3 weeks vs untreated controls
How it was run: as §1

Setaria viridis [14] = assay: Pre-emergence herbicidal activity against SETVI; settings: dosage 80 g/ha, scored visually after about 3 weeks vs untreated controls
Description: as §3

Lolium rigidum [15] = assay: Pre-emergence herbicidal activity against LOLRI; settings: dosage 80 g/ha, scored visually after about 3 weeks vs untreated controls
Description: as §3

Viola tricolor [16] = assay: Post-emergence herbicidal activity against VIOTR; settings: dosage 320 g/ha, rated visually after about 3 weeks
How it was run: as §2

Amaranthus retroflexus [17] = assay: Pre-emergence herbicidal activity against AMARE; settings: dosage 80 g/ha, scored visually after about 3 weeks vs untreated controls
Description: as §3

Hordeum murinum [18] = assay: Post-emergence herbicidal activity against HORMU; settings: dosage 320 g/ha, rated visually after about 3 weeks
How it was run: as §2

Echinochloa crus-galli [19] = assay: Post-emergence herbicidal activity against ECHCG; settings: dosage 320 g/ha, rated visually after about 3 weeks
How it was run: as §2

Viola tricolor [20] = assay: Pre-emergence herbicidal activity against VIOTR; settings: dosage 80 g/ha, scored visually after about 3 weeks vs untreated controls
Description: as §3

Abutilon theophrasti = assay: Post-emergence herbicidal activity against ABUTH; settings: dosage 320 g/ha, rated visually after about 3 weeks
How it was run: as §2

Setaria viridis [21] = assay: Post-emergence herbicidal activity against SETVI; settings: dosage 320 g/ha, rated visually after about 3 weeks
How it was run: as §2

Hordeum murinum [22] = assay: Pre-emergence herbicidal activity against HORMU; settings: dosage 80 g/ha
Description: as §3

Avena fatua [23] = assay: Pre-emergence herbicidal activity against AVEFA; settings: dosage 80 g/ha, scored visually after about 3 weeks vs untreated controls
How it was run: as §1

Veronica persica [24] = assay: Pre-emergence herbicidal activity against VERPE; settings: dosage 80 g/ha
How it was run: as §1

SMILES	Pre-emergence herbicidal activity in % against STEME (Stellaria media [1])	Pre-emergence herbicidal activity in % against ALOMY (Alopecurus myosuroides [2])	Post-emergence herbicidal activity in % against AMARE (Amaranthus retroflexus [3])	Post-emergence herbicidal activity in % against POLCO (Polygonum convolvulus [4])	Post-emergence herbicidal activity in % against STEME (Stellaria media [5])	Post-emergence herbicidal activity in % against AVEFA (Avena fatua [6])	Post-emergence herbicidal activity in % against ALOMY (Alopecurus myosuroides [7])	Post-emergence herbicidal activity in % against PHBPU (Pharbitis purpurea [8])	Pre-emergence herbicidal activity in % against ECHCG (Echinochloa crus-galli [9])	Post-emergence herbicidal activity in % against VERPE (Veronica persica [10])	Pre-emergence herbicidal activity in % against PHBPU (Pharbitis purpurea [11])	Post-emergence herbicidal activity in % against LOLRI (Lolium rigidum [12])	Pre-emergence herbicidal activity in % against POLCO (Polygonum convolvulus [13])	Pre-emergence herbicidal activity in % against SETVI (Setaria viridis [14])	Pre-emergence herbicidal activity in % against LOLRI (Lolium rigidum [15])	Pre-emergence herbicidal activity in % against AMARE (Amaranthus retroflexus [17])	Post-emergence herbicidal activity in % against HORMU (Hordeum murinum [18])	Pre-emergence herbicidal activity in % against VIOTR (Viola tricolor [20])	Post-emergence herbicidal activity in % against ABUTH (Abutilon theophrasti)	Post-emergence herbicidal activity in % against SETVI (Setaria viridis [21])	also measured
C=C[C@]1(C(=O)N[C@@H]2CO[C@H](C(=O)NCCC(=O)OC)C2)CC(c2cc(F)cc(F)c2)=NO1 [Example I-20]	100%	100%	90%	80%	80%	100%	100%	90%	100%	80%	80%	100%	100%	100%	100%	100%	100%	100%	80%	90%	Post-emergence herbicidal activity in % against VIOTR (Viola tricolor [16]): 80%; Post-emergence herbicidal activity in % against ECHCG (Echinochloa crus-galli [19]): 100%; Pre-emergence herbicidal activity in % against HORMU (Hordeum murinum [22]): 100%; Pre-emergence herbicidal activity in % against AVEVA (AVEFA) (Avena fatua [23]): 100%
C=C[C@]1(C(=O)N[C@@H]2CO[C@H](C(=O)NCC(=O)OC)C2)CC(c2cc(F)cc(F)c2)=NO1 [Example I-21]	90%	100%	90%	90%	90%	100%	90%	90%	100%	80%	90%	90%	100%	100%	100%	100%	100%	100%	90%	90%	Post-emergence herbicidal activity in % against VIOTR (Viola tricolor [16]): 90%; Post-emergence herbicidal activity in % against ECHCG (Echinochloa crus-galli [19]): 90%; Pre-emergence herbicidal activity in % against VERPE (Veronica persica [24]): 90%; Pre-emergence herbicidal activity in % against HORMU (Hordeum murinum [22]): 90%; Pre-emergence herbicidal activity in % against AVEVA (AVEFA) (Avena fatua [23]): 100%
C[C@]1(C(=O)N[C@@H]2CO[C@H](C(=O)NS(C)(=O)=O)C2)CC(c2cc(F)cc(F)c2)=NO1 [Example I-23]	100%	100%	80%	90%	90%	100%	90%	80%	100%	80%	90%	100%	100%	100%	100%	100%	100%	90%	80%	80%	Post-emergence herbicidal activity in % against VIOTR (Viola tricolor [16]): 80%; Post-emergence herbicidal activity in % against ECHCG (Echinochloa crus-galli [19]): 90%; Pre-emergence herbicidal activity in % against VERPE (Veronica persica [24]): 90%; Pre-emergence herbicidal activity in % against HORMU (Hordeum murinum [22]): 90%; Pre-emergence herbicidal activity in % against AVEVA (AVEFA) (Avena fatua [23]): 100%
CN(C)C(=O)[C@@H]1C[C@H](NC(=O)[C@@]2(C)CC(c3cc(F)cc(F)c3)=NO2)CO1 [Example I-25]	100%	100%	80%	80%	90%	90%	100%	90%	80%	80%	90%	100%	100%	100%	100%	100%	90%	100%	80%	80%	Pre-emergence herbicidal activity in % against VERPE (Veronica persica [24]): 90%; Pre-emergence herbicidal activity in % against AVEVA (AVEFA) (Avena fatua [23]): 90%
